Data reported in patent publication US9522920B2, “Bromodomain inhibitors and uses thereof” (Constellation Pharmaceuticals, Inc., priority 2010, dated 2016).
Read-outs that look alike come from different tables or passages of the source.

Assays:
[1] = target: T1, BRD4(BD1) (Homo sapiens, UniProt O60885); assay: BRD4 AlphaLisa binding assay (Alphascreen)
T1 construct: His; made in house
Description: Specifically, in a 384 well ProxiPlate BRD4(BD1) (30 nM final) was combined with peptide (200 nM final) in 40 mM HEPES (pH 7.0), 40 mM NaCl, 1 mM DTT, 0.01% (w/v) BSA, and 0.008% (w/v) Brij-35 either in the presence of DMSO (final 1.2% DMSO) or compound dilution series in DMSO. After 20 minute incubation at room temperature Alpha streptavidin donor beads and AlphaLisa anti-Flag acceptor beads were added to a final concentration of 10 ug/mL each. After three hours equilibration plates were read on an Envision instrument and IC50s calculated using a four parameter non-linear curve fit.

[2] = tested on: IL-6 secretion; assay: Cell-based IL-6 quantification assay (ELISA, Mesoscale) in LPS-stimulated THP-1 cells; details: Homo sapiens, THP-1, 16 h, read-out: IL6
Description: 100,000 THP-1 cells were seeded in RPMI1640-10% FBS in 96-well plates. LPS (E. Coli Invitrogen) in RPMI-10% FBS at a final concentration of 4 μg/mL was added to the wells and the cells are then incubated in the presence of various concentrations of compounds for 16 h. Plates are spun ([…], 5 min), an aliquot of 25 uL supernatant is transferred in to an ELISA plate (Mesoscale technology, MSD) and the detection of IL-6 is performed using manufacturer's instructions. The amount of cells in each well is assessed using CellTiter-Glo® (Promega). The ratio of ELISA value/CellTiter-Glo value is used to calculate the percent of inhibition of IL-6 secretion.

[3] = Table 6, BRD4(BD1) 30 nM, H4-tetraacetyl peptide 200 nM, read-out: BRD4 Alphascreen IC50
[4] = Table 7, THP-1 cells, LPS 4 μg/mL, 16 h, normalised to CellTiter-Glo
[5] = Table 14, BRD4 AlphaLisa Binding Assay, read-out: Alpha screen

Compound: Cc1noc2c1-c1sc(C)c(C)c1C(c1cc[nH]n1)=NC2CC(N)=O (stereo not drawn) [Compound 100]
- IC50 [1, 3]: < 500 nM
- IC50 [2, 4]: 500 to 1000 nM

Compound: Cc1noc2c1-c1sc(C)c(C)c1C(c1ccn(C)n1)=NC2CC(N)=O (stereo not drawn) [Compound 101]
- IC50 [1, 3]: < 500 nM
- IC50 [2, 4]: 500 to 1000 nM

Compound: Cc1noc2c1-c1sc(C)c(C)c1C(c1ccnnc1)=NC2CC(N)=O (stereo not drawn) [Compound 104]
- IC50 [1, 3]: 500 to 1000 nM
- IC50 [2, 4]: 500 to 1000 nM

Compound: Cc1noc2c1-c1sc(C)c(C)c1C(c1cncnc1)=NC2CC(N)=O (stereo not drawn) [Compound 105]
- IC50 [1, 3]: > 1000 nM
- IC50 [2, 4]: > 1000 nM

Compound: Cc1noc2c1-c1sc(C)c(C)c1C(c1cccnc1)=NC2CC(N)=O (stereo not drawn) [Compound 106]
- IC50 [1, 3]: < 500 nM
- IC50 [2, 4]: < 500 nM

Compound: Cc1noc2c1-c1sc(C)c(C)c1C(c1ccncc1)=NC2CC(N)=O (stereo not drawn) [Compound 107]
- IC50 [1, 3]: < 500 nM
- IC50 [2, 4]: < 500 nM

Compound: Cc1noc2c1-c1sc(C)c(C)c1C(c1ccccc1Cl)=NC2CC(N)=O (stereo not drawn) [Compound 111]
- IC50 [1, 3]: < 500 nM
- IC50 [2, 4]: < 500 nM

Compound: Cc1noc2c1-c1sc(C)c(C)c1C(c1cccc(C(N)=O)c1)=NC2CC(N)=O (stereo not drawn) [Compound 117]
- IC50 [1, 3]: < 500 nM
- IC50 [2, 4]: < 500 nM

Compound: Cc1noc2c1-c1sc(C)c(C)c1C(c1ccn(C)c(=O)c1)=NC2CC(N)=O (stereo not drawn) [Compound 119]
- IC50 [1, 3]: < 500 nM
- IC50 [2, 4]: 500 to 1000 nM

Compound: Cc1noc2c1-c1sc(C)c(C)c1C(N1CCN(C)CC1)=NC2CC(N)=O (stereo not drawn) [Compound 121]
- IC50 [1, 3]: > 1000 nM
- IC50 [2, 4]: > 1000 nM

Compound: Cc1noc2c1-c1sc(C)c(C)c1C(N1CCOCC1)=NC2CC(N)=O (stereo not drawn) [Compound 122]
- IC50 [1, 3]: > 1000 nM
- IC50 [2, 4]: > 1000 nM

Compound: Cc1noc2c1-c1sc(C)c(C)c1C(N1CCCN(C)CC1)=NC2CC(N)=O (stereo not drawn) [Compound 123]
- IC50 [1, 3]: > 1000 nM
- IC50 [2, 4]: > 1000 nM

Compound: Cc1noc2c1-c1sc(C)c(C)c1C(C1CC1)=NC2CC(N)=O (stereo not drawn) [Compound 125]
- IC50 [1, 3]: > 1000 nM
- IC50 [2, 4]: > 1000 nM

Compound: Cc1noc2c1-c1sc(C)c(C)c1C(Cc1ccccc1)=N[C@H]2CC(N)=O [Compound 127, 2-((6S)-4-benzyl-2,3,9-trimethyl-6H-isoxazolo[5,4-c]thieno[2,3-e]azepin-6-yl)acetamide]
- IC50 [1, 3]: > 1000 nM
- IC50 [2, 4]: > 1000 nM

Compound: Cc1cc(Cl)ccc1C1=NC(CC(N)=O)c2onc(C)c2-c2ccccc21 (stereo not drawn) [Compound 151]
- IC50 [1, 3]: < 500 nM
- IC50 [2, 4]: < 500 nM

Compound: Cc1onc2c1-c1ccccc1C(c1ccc(Cl)cc1)=NC2O (stereo not drawn) [Compound 153, 6-(4-chlorophenyl)-1-methyl-4H-benzo[c]isoxazolo[4,3-e]azepin-4-ol]
- IC50 [1, 3]: > 1000 nM
- IC50 [2, 4]: > 1000 nM

Compound: Cc1onc2c1-c1ccccc1C(c1ccc(Cl)cc1)=NC2N (stereo not drawn) [Compound 154, 6-(4-chlorophenyl)-1-methyl-4H-benzo[c]isoxazolo[4,3-e]azepin-4-amine]
- IC50 [1, 3]: > 1000 nM
- IC50 [2, 4]: > 1000 nM

Compound: Cc1onc2c1-c1ccccc1C(c1ccc(Cl)cc1)=NC2C (stereo not drawn) [Compound 156, 6-(4-chlorophenyl)-1,4-dimethyl-4H-benzo[c]isoxazolo[4,3-e]azepine]
- IC50 [1, 3]: < 500 nM
- IC50 [2, 4]: > 1000 nM

Compound: CCOC(=O)C[C@@H]1N=C(c2ccc(Cl)cc2)c2ccccc2-c2c1noc2C [Compound 162, Ethyl 2-((4S)-6-(4-chlorophenyl)-1-methyl-4H-benzo[c]isoxazolo[4,3-e]azepin-4-yl)acetate]
- IC50 [1, 3]: < 500 nM
- IC50 [2, 4]: > 1000 nM

Compound: CCNC(=O)C[C@H]1N=C(c2ccc(Cl)cc2)c2c(sc(C)c2C)-c2c(C)noc21 [Compound 167, 2-((6R)-4-(4-chlorophenyl)-2,3,9-trimethyl-6H-isoxazolo[4,5-e]thieno[3,2-c]azepin-6-yl)-N-ethylacetamide]
- IC50 ([1]; BRD4 Alphascreen IC50, Table 6, BRD4(BD1) 30 nM, H4-tetraacetyl peptide 200 nM): > 1000 nM

Compound: Cc1noc2c1-c1sc(C)c(C)c1C(C1CCOCC1)=N[C@H]2CC(N)=O [Compound 168, 2-((6S)-2,3,9-trimethyl-4-(tetrahydro-2H-pyran-4-yl)-6H-isoxazolo[5,4-c]thieno[2,3-e]azepin-6-yl)acetamide]
- IC50 [1, 3]: > 1000 nM
- IC50 [2, 4]: > 1000 nM

Compound: Cc1noc2c1-c1ccnc(F)c1C(c1ccc(Cl)cc1)=NC2 [Compound 169, 6-(4-Chlorophenyl)-7-fluoro-1-methyl-4H-isoxazolo[5,4-c]pyrido[4,3-e]azepine]
- IC50 [1, 3]: > 1000 nM
- IC50 [2, 4]: > 1000 nM

Compound: COc1nccc2c1C(c1ccc(Cl)cc1)=NCc1onc(C)c1-2 [Compound 170, 6-(4-Chlorophenyl)-7-methoxy-1-methyl-4H-isoxazolo[5,4-c]pyrido[4,3-e]azepine]
- IC50 [1, 3]: < 500 nM
- IC50 [2, 4]: > 1000 nM

Compound: Cc1noc2c1-c1ccnc(OC(C)C)c1C(c1ccc(Cl)cc1)=NC2 [Compound 171, 6-(4-Chlorophenyl)-7-isopropoxy-1-methyl-4H-isoxazolo[5,4-c]pyrido[4,3-e]azepine]
- IC50 [1, 3]: > 1000 nM
- IC50 [2]: > 1000 nM

Compound: Cc1noc2c1-c1cc[nH]c(=O)c1C(c1ccc(Cl)cc1)=NC2 [Compound 176, 6-(4-Chlorophenyl)-1-methyl-4H-isoxazolo[5,4-c]pyrido[4,3-e]azepin-7(8H)-one]
- IC50 [1, 3]: > 1000 nM
- IC50 [2, 4]: > 1000 nM

Compound: Cc1noc2c1-c1ccn(C)c(=O)c1C(c1ccc(Cl)cc1)=NC2 [Compound 177, 6-(4-Chlorophenyl)-1,8-dimethyl-4H-isoxazolo[5,4-c]pyrido[4,3-e]azepin-7(8H)-one]
- IC50 [1, 3]: > 1000 nM
- IC50 [2, 4]: > 1000 nM

Compound: Cc1noc2c1-c1ccn(-c3ccc(C#N)cc3)c(=O)c1C(c1ccc(Cl)cc1)=NC2 [Compound 178, 4-(6-(4-Chlorophenyl)-1-methyl-7-oxo-4H-isoxazolo[5,4-c]pyrido[4,3-e]azepin-8(7H)-yl)benzonitrile]
- IC50 [1, 3]: > 1000 nM
- IC50 [2, 4]: > 1000 nM

Compound: Cc1noc2c1-c1ccn(-c3ccccc3)c(=O)c1C(c1ccc(Cl)cc1)=NC2 [Compound 179, 6-(4-Chlorophenyl)-1-methyl-8-phenyl-4H-isoxazolo[5,4-c]pyrido[4,3-e]azepin-7(8H)-one]
- IC50 [1, 3]: > 1000 nM
- IC50 [2, 4]: > 1000 nM

Compound: CC(=O)NC[C@@H]1N=C(c2ccc(Cl)cc2)c2c(sc(C)c2C)-c2c(C)noc21 [Compound 182, N-(((6S)-4-(4-Chlorophenyl)-2,3,9-trimethyl-6H-isoxazolo[5,4-c]thieno[2,3-e]azepin-6-yl)methyl)acetamide]
- IC50 [1, 3]: < 500 nM
- IC50 [2, 4]: 500 to 1000 nM

Compound: CCNC(=O)C[C@H]1N=C(c2ccc(Cl)cc2)c2ccccc2-c2c1noc2C [Compound 189, 2-((4R)-6-(4-chlorophenyl)-1-methyl-4H-benzo[c]isoxazolo[4,3-e]azepin-4-yl)-N-ethylacetamide]
- IC50 [1, 3]: > 1000 nM

Compound: Cc1onc2c1-c1ccccc1C(c1ccc(Cl)cc1)=NC2 [Compound 191, 6-(4-chlorophenyl)-1-methyl-4H-benzo[c]isoxazolo[4,3-e]azepine]
- IC50 [1, 3]: > 1000 nM

Compound: CNc1cc2c(cn1)-c1c(C)noc1CN=C2c1ccc(Cl)cc1 [Compound 258, 6-(4-Chlorophenyl)-N,1-dimethyl-4H-isoxazolo[5,4-c]pyrido[3,4-e]azepin-8-amine]
- IC50 [1, 5]: < 500 nM

Compound: Cc1noc2c1-c1cn(C)nc1C(c1ccc(Cl)cc1)=NC2 [Compound 265, 6-(4-chlorophenyl)-1,8-dimethyl-4,8-dihydroisoxazolo[5,4-c]pyrazolo[4,3-e]azepine]
- IC50 ([2]; Table 14, THP-1 cells, LPS, 16 h): > 1000 nM

Compound: CCNC(=O)NC1N=C(c2ccc(OC(F)(F)F)cc2)c2ccccc2-c2c(C)noc21 (stereo not drawn) [compound 259]
- IC50 [1, 5]: < 500 nM

Compound: CCNC(=O)NC1N=C(c2ccc(F)cc2)c2ccccc2-c2c(C)noc21 (stereo not drawn) [compound 260]
- IC50 [1, 5]: < 500 nM
